Assays:
[1] = Solubility determinations in SIF buffers FaSSIF, FeSSIF, FaSSGF (Example 8, Experiment 5)
Procedure: The temperature was maintained at 37° C. for 24 h. […] The suspensions were sampled at the relevant time points and centrifuged. The centrifuged pellets, obtained at the time points were analysed by XRPD as a wet pellet and dried, for evidence of form change.
The temperature was maintained at 37° C. for 24 h.
The suspension was sampled at the relevant time points and centrifuged. […] The centrifuged pellets, obtained at the time points were analyzed by XRPD as a wet pellet and dried, for evidence of form change.

[2] = type: physicochemical; conditions: salt screen, Experiment 2
Procedure: Tabernanthalog (native) (50 mg, 1 wt) was charged to a solution of the relevant counter ion (1.0 mol equivalence of counter ion) in ethanol (5.0 vol, 250 μl). The mixtures were warmed to 85° C. and small aliquots of water were added until dissolution occurred (Table 212 for additional charges of solvent). The solutions were cooled and allowed to stand undisturbed under sub-ambient conditions overnight (Table 211). […] Products were isolated via centrifugation. The corresponding pellets were sub-sampled and analyzed wet by XRPD; after which, they were dried at 40° C. under reduced pressure over 20 h and reanalyzed by XRPD. […] Once the crystallization experiments were completed, salt formation was confirmed by ^1H NMR, XRPD, DSC and TGA.

[3] = input batch 3-B1, before SIF buffer

COc1ccc2c3c([nH]c2c1)CCN(C)CC3.O=C(O)c1ccccc1 [Tabernanthalog · Benzoate]
Trended HPLC data, Tabernanthalog (RRT 1.00) [1, 3]: 99.23 % area | Trended HPLC data, peak at RRT 0.86 [1, 3]: 0.02 % area | Trended HPLC data, peak at RRT 0.89 [1, 3]: 0.04 % area | Trended HPLC data, peak at RRT 0.93 [1, 3]: 0.61 % area | Trended HPLC data, peak at RRT 1.09 [1, 3]: 0.08 % area | Trended HPLC data, peak at RRT 1.11 [1, 3]: 0.02 % area | Trended HPLC data, Tabernanthalog (RRT 1.00) ([1]; t = 1 h in FaSSGF): 99.33 % area | Trended HPLC data, peak at RRT 0.93 ([1]; t = 1 h in FaSSGF): 0.55 % area | Trended HPLC data, peak at RRT 1.09 ([1]; t = 1 h in FaSSGF): 0.07 % area | Trended HPLC data, peak at RRT 1.10 ([1]; t = 1 h in FaSSGF): 0.02 % area | Trended HPLC data, peak at RRT 1.11 ([1]; t = 1 h in FaSSGF): 0.03 % area | Trended HPLC data, Tabernanthalog (RRT 1.00) ([1]; t = 1 h in FaSSIF): 98.67 % area | Trended HPLC data, peak at RRT 0.93 ([1]; t = 1 h in FaSSIF): 0.92 % area | Trended HPLC data, peak at RRT 1.08 ([1]; t = 1 h in FaSSIF): 0.13 % area | Trended HPLC data, peak at RRT 1.11 ([1]; t = 1 h in FaSSIF): 0.28 % area | Trended HPLC data, Tabernanthalog (RRT 1.00) ([1]; t = 1 h in FeSSIF): 99.05 % area | Trended HPLC data, peak at RRT 0.93 ([1]; t = 1 h in FeSSIF): 0.84 % area | Trended HPLC data, peak at RRT 1.08 ([1]; t = 1 h in FeSSIF): 0.11 % area | Trended HPLC data, Tabernanthalog (RRT 1.00) ([1]; t = 3 h in FaSSGF): 99.34 % area | Trended HPLC data, peak at RRT 0.93 ([1]; t = 3 h in FaSSGF): 0.58 % area | Trended HPLC data, peak at RRT 1.09 ([1]; t = 3 h in FaSSGF): 0.07 % area | Trended HPLC data, Tabernanthalog (RRT 1.00) ([1]; t = 3 h in FaSSIF): 98.77 % area | Trended HPLC data, peak at RRT 0.93 ([1]; t = 3 h in FaSSIF): 1.04 % area | Trended HPLC data, peak at RRT 1.08 ([1]; t = 3 h in FaSSIF): 0.20 % area | Trended HPLC data, Tabernanthalog (RRT 1.00) ([1]; t = 3 h in FeSSIF): 99.03 % area | Trended HPLC data, peak at RRT 0.93 ([1]; t = 3 h in FeSSIF): 0.81 % area | Trended HPLC data, peak at RRT 1.08 ([1]; t = 3 h in FeSSIF): 0.10 % area | Trended HPLC data, peak at RRT 1.11 ([1]; t = 3 h in FeSSIF): 0.06 % area | Trended HPLC data, Tabernanthalog (RRT 1.00) ([1]; t = 6 h in FaSSGF): 99.33 % area | Trended HPLC data, peak at RRT 0.93 ([1]; t = 6 h in FaSSGF): 0.59 % area | Trended HPLC data, peak at RRT 1.09 ([1]; t = 6 h in FaSSGF): 0.08 % area | Trended HPLC data, Tabernanthalog (RRT 1.00) ([1]; t = 6 h in FaSSIF): 98.58 % area | Trended HPLC data, peak at RRT 0.93 ([1]; t = 6 h in FaSSIF): 1.26 % area | Trended HPLC data, peak at RRT 1.08 ([1]; t = 6 h in FaSSIF): 0.16 % area | Trended HPLC data, Tabernanthalog (RRT 1.00) ([1]; t = 6 h in FeSSIF): 98.69 % area | Trended HPLC data, peak at RRT 0.93 ([1]; t = 6 h in FeSSIF): 1.00 % area | Trended HPLC data, peak at RRT 1.08 ([1]; t = 6 h in FeSSIF): 0.15 % area | Trended HPLC data, peak at RRT 1.10 ([1]; t = 6 h in FeSSIF): 0.07 % area | Trended HPLC data, peak at RRT 1.11 ([1]; t = 6 h in FeSSIF): 0.09 % area | Trended HPLC data, Tabernanthalog (RRT 1.00) ([1]; t = 24 h in FaSSGF): 99.29 % area | Trended HPLC data, peak at RRT 0.93 ([1]; t = 24 h in FaSSGF): 0.63 % area | Trended HPLC data, peak at RRT 1.09 ([1]; t = 24 h in FaSSGF): 0.08 % area | Trended HPLC data, Tabernanthalog (RRT 1.00) ([1]; t = 24 h in FaSSIF): 98.01 % area | Trended HPLC data, peak at RRT 0.93 ([1]; t = 24 h in FaSSIF): 1.51 % area | Trended HPLC data, peak at RRT 1.08 ([1]; t = 24 h in FaSSIF): 0.24 % area | Trended HPLC data, peak at RRT 1.10 ([1]; t = 24 h in FaSSIF): 0.11 % area | Trended HPLC data, peak at RRT 1.11 ([1]; t = 24 h in FaSSIF): 0.13 % area | Trended HPLC data, Tabernanthalog (RRT 1.00) ([1]; t = 24 h in FeSSIF): 98.17 % area | Trended HPLC data, peak at RRT 0.89 ([1]; t = 24 h in FeSSIF): 0.15 % area | Trended HPLC data, peak at RRT 0.93 ([1]; t = 24 h in FeSSIF): 1.36 % area | Trended HPLC data, peak at RRT 1.08 ([1]; t = 24 h in FeSSIF): 0.19 % area | Trended HPLC data, peak at RRT 1.10 ([1]; t = 24 h in FeSSIF): 0.13 % area | Discrete melt (DSC)? [2]: ✓ | Flat baseline (DSC)? [2]: ✓ | Flat baseline pre-melt (TGA)? [2]: ✓ | Unique XRPD? [2]: ✓

COc1ccc2c3c([nH]c2c1)CCN(C)CC3.O=C(O)CC(O)(CC(=O)O)C(=O)O [Tabernanthalog · Citrate]
Unique XRPD? [2]: v. Disordered

COc1ccc2c3c([nH]c2c1)CCN(C)CC3.O=S(=O)(O)CCS(=O)(=O)O [Tabernanthalog · Edisylate]
Unique XRPD? [2]: Disordered

COc1ccc2c3c([nH]c2c1)CCN(C)CC3.O=C(O)[C@@H](O)[C@H](O)[C@H](O)[C@@H](O)C(=O)O [Tabernanthalog · Galactarate]
Flat baseline pre-melt (TGA)? [2]: ✓ | Unique XRPD? [2]: v. Disordered

COc1ccc2c3c([nH]c2c1)CCN(C)CC3.O=C[C@H](O)[C@@H](O)[C@H](O)[C@H](O)C(=O)O [Tabernanthalog · Glucuronate]
Discrete melt (DSC)? [2]: ✓ | Flat baseline (DSC)? [2]: ✓ | Flat baseline pre-melt (TGA)? [2]: ✓ | Unique XRPD? [2]: ✓

COc1ccc2c3c([nH]c2c1)CCN(C)CC3.O=C(O)C[C@H](O)C(=O)O [Tabernanthalog · Malate]
Discrete melt (DSC)? [2]: ✓ | Flat baseline (DSC)? [2]: ✓ | Flat baseline pre-melt (TGA)? [2]: ✓ | Unique XRPD? [2]: ✓

COc1ccc2c3c([nH]c2c1)CCN(C)CC3.O=C(O)C=CC(=O)O [Tabernanthalog · Maleate]
Unique XRPD? [2]: Disordered

COc1ccc2c3c([nH]c2c1)CCN(C)CC3.O=P(O)(O)O [Tabernanthalog · Phosphate]
Discrete melt (DSC)? [2]: ✓ | Flat baseline (DSC)? [2]: ✓ | Unique XRPD? [2]: Disordered

COc1ccc2c3c([nH]c2c1)CCN(C)CC3 [Tabernanthalog · Sorbate]
Discrete melt (DSC)? [2]: ✓ | Flat baseline (DSC)? [2]: ✓ | Flat baseline pre-melt (TGA)? [2]: ✓ | Unique XRPD? [2]: ✓

COc1ccc2c3c([nH]c2c1)CCN(C)CC3.O=S(=O)(O)O [Tabernanthalog · Sulfate]
Unique XRPD? [2]: Amorphous

COc1ccc2c3c([nH]c2c1)CCN(C)CC3.Cc1ccc(S(=O)(=O)O)cc1 [Tabernanthalog · Tosylate]
Discrete melt (DSC)? [2]: ✓ | Flat baseline (DSC)? [2]: ✓ | Flat baseline pre-melt (TGA)? [2]: ✓ | Unique XRPD? [2]: ✓
